# Experimental data as given in patent US20050197350A1, “Novel quinoline, tetrahydroquinazoline, and pyrimidine derivatives and methods of treatment related to the use thereof” (TAISHO PHARMACEUTICAL CO., LTD., priority 2003, published 2005).
# System: MCH receptors
# Assay: MCH receptor activity class (method not given)
# Conditions: not given
row,class,Structure (SMILES)
1,1,"COc1cccc(CNC(=O)[C@H]2CC[C@@H](Nc3nc(C)cc(N(C)C)n3)CC2)c1 [Example 2579, cis-4-{[4-(dimethylamino)-6-methylpyrimidin-2-yl]amino}-N-(3-methoxybenzyl)cyclohexanecarboxamide]"
2,1,"Cc1cc(N(C)C)nc(N[C@H]2CC[C@@H](NC(=O)c3cccc(Cl)c3)CC2)n1 [Example 2567, 3-chloro-N-(cis-4-{[4-(dimethylamino)-6-methylpyrimidin-2-yl]amino}cyclohexyl)benzamide]"

# Same assay, conditions: MCH receptor activity class 1-3 (percent of control at 10^-7 M or IC50)
row,Structure (SMILES),class
1,CCOC(=O)c1cccc(NC(=S)N[C@H]2CC[C@@H](Nc3nccc(N(C)C)n3)CC2)c1 [compound 2338],3 (Class 3 The value of percent of control at 10^−7 M was more than 60% or the value of IC50 was more than 200 nM.)

# Same assay, conditions: MCH receptor; class by percent of control at 10^-7 M or IC50
row,Structure (SMILES),class
1,CN(C)c1cc(N[C@H]2CC[C@@H](CNC(=O)c3ccc(Cl)cc3)CC2)nc2ccccc12 [compound 152],3 (Class 3 The value of percent of control at 10^−7 M was more than 60% or the value of IC50 was more than 200 nM.)
2,CN(C)c1nc(N[C@H]2CC[C@@H](NC(=S)Nc3ccc(OC(F)(F)F)cc3)CC2)nc2c1CCCC2 [compound 1988],3 (Class 3 The value of percent of control at 10^−7 M was more than 60% or the value of IC50 was more than 200 nM.)
3,CN(C)c1cc(N[C@H]2CC[C@@H](NC(=O)COCc3ccccc3)CC2)nc2ccccc12 [compound 95],3 (Class 3 The value of percent of control at 10^−7 M was more than 60% or the value of IC50 was more than 200 nM.)
4,CN(C)c1nc(N[C@H]2CC[C@@H](NC(=S)Nc3ccc(F)cc3Br)CC2)nc2c1CCCC2 [compound 2070],3 (Class 3 The value of percent of control at 10^−7 M was more than 60% or the value of IC50 was more than 200 nM.)
5,Cc1ccc(CNC(=S)N[C@H]2CC[C@@H](Nc3nc4c(c(N(C)C)n3)CCCC4)CC2)cc1 [compound 2021],3 (Class 3 The value of percent of control at 10^−7 M was more than 60% or the value of IC50 was more than 200 nM.)

# Same assay, conditions: activity class 1-3: percent of control at 10^-7 M or IC50
row,Structure (SMILES),class
1,"Cc1cccc(C(C)(C)C)c1NC(=O)N[C@H]1CC[C@@H](Nc2nc3c(c(N(C)C)n2)CCCC3)CC1 [compound 1683, N-(2-tert-butyl-6-methylphenyl)-N′-(cis-4-{[4-(dimethylamino)-5,6,7,8-tetrahydroquinazolin-2-yl]amino}cyclohexyl)urea]",2 (Class 2: The value of percent of control at 10^−7 M was from 40% to 60% or the value of IC′50 was from 50 nM to 200 nM.)
2,Cc1ccc(OC(=O)NC[C@H]2CC[C@@H](Nc3cc(N(C)C)c4ccccc4n3)CC2)cc1 [compound 1574],3 (Class 3 The value of percent of control at 10^−7 M was more than 60% or the value of IC50 was more than 200 nM.)
3,CN(C)c1nc(N[C@H]2CC[C@@H](CNC(=O)OCC3c4ccccc4-c4ccccc43)CC2)nc2c1CCCC2 [compound 1617],3 (Class 3 The value of percent of control at 10^−7 M was more than 60% or the value of IC50 was more than 200 nM.)

# Same assay, conditions: activity class per percent of control at 10^-7 M or IC50
row,Structure (SMILES),class
1,COc1cc(CNC[C@H]2CC[C@@H](Nc3cc(N(C)C)c4ccccc4n3)CC2)cc(I)c1O [compound 1139],3 (Class 3 The value of percent of control at 10^−7 M was more than 60% or the value of IC50 was more than 200 nM.)
2,COc1ccc(CNC[C@H]2CC[C@@H](Nc3cc(N(C)C)c4ccccc4n3)CC2)cc1 [compound 1141],3 (Class 3 The value of percent of control at 10^−7 M was more than 60% or the value of IC50 was more than 200 nM.)
3,CN(C)c1nc(N[C@H]2CC[C@@H](CNC(=O)c3ccc([N+](=O)[O-])s3)CC2)nc2c1CCCC2 [compound 1075],3 (Class 3 The value of percent of control at 10^−7 M was more than 60% or the value of IC50 was more than 200 nM.)

# Same assay, conditions: class 1-3 by percent of control at 10^-7 M or IC50
row,Structure (SMILES),class
1,CN(C)c1nc(N[C@H]2CC[C@@H](NC(=O)Cc3ccccc3)CC2)nc2c1CCCC2 [compound 481],3 (Class 3 The value of percent of control at 10^−7 M was more than 60% or the value of IC50 was more than 200 nM.)

# Same assay, conditions: class by percent of control at 10^-7 M or IC50
row,Structure (SMILES),class
1,CN(C)c1nc(N[C@H]2CC[C@@H](NCc3ccc(F)c(Br)c3)CC2)nc2c1CCCC2 [compound 1346],3 (Class 3 The value of percent of control at 10^−7 M was more than 60% or the value of IC50 was more than 200 nM.)
2,COc1cc(OC)c(OC)cc1CNC[C@H]1CC[C@@H](Nc2cc(N(C)C)c3ccccc3n2)CC1 [compound 1175],2 (Class 2: The value of percent of control at 10^−7 M was from 40% to 60% or the value of IC′50 was from 50 nM to 200 nM.)
3,Cc1oc(-c2ccccc2)cc1CNC[C@H]1CC[C@@H](Nc2nc3c(c(N(C)C)n2)CCCC3)CC1 [compound 1434],3 (Class 3 The value of percent of control at 10^−7 M was more than 60% or the value of IC50 was more than 200 nM.)
4,Cc1onc(-c2ccccc2)c1NC(=O)N[C@H]1CC[C@@H](Nc2cc(N(C)C)c3ccccc3n2)CC1 [compound 2166],3 (Class 3 The value of percent of control at 10^−7 M was more than 60% or the value of IC50 was more than 200 nM.)
5,CCCc1c(CNC[C@H]2CC[C@@H](Nc3cc(N(C)C)c4ccccc4n3)CC2)cnn1-c1ccccc1 [compound 1478],1 (Class 1: The value of percent of control at 10^−7 M was less than 40% or the value of IC50 was less than 50 nM.)
6,CN(C)c1nc(N[C@H]2CC[C@@H](NC(=O)c3cn(Cc4ccccc4)c4ccccc34)CC2)nc2c1CCCC2 [compound 967],3 (Class 3 The value of percent of control at 10^−7 M was more than 60% or the value of IC50 was more than 200 nM.)
7,CN(C)c1ccnc(N[C@H]2CC[C@@H](NC(=O)c3ccccc3OC(F)(F)F)CC2)n1 [compound 336],3 (Class 3 The value of percent of control at 10^−7 M was more than 60% or the value of IC50 was more than 200 nM.)
8,CN(C)c1ccnc(N[C@H]2CC[C@@H](NC(=O)c3cn(S(=O)(=O)c4ccccc4)c4ccccc34)CC2)n1 [compound 908],3 (Class 3 The value of percent of control at 10^−7 M was more than 60% or the value of IC50 was more than 200 nM.)
9,COc1ccc(C)cc1NC(=S)N[C@H]1CC[C@@H](Nc2nc3c(c(N(C)C)n2)CCCC3)CC1 [compound 1750],2 (Class 2: The value of percent of control at 10^−7 M was from 40% to 60% or the value of IC′50 was from 50 nM to 200 nM.)
10,COc1cc(CN[C@H]2CC[C@@H](Nc3nc4c(c(N(C)C)n3)CCCC4)CC2)cc(OC)c1OC [compound 1340],3 (Class 3 The value of percent of control at 10^−7 M was more than 60% or the value of IC50 was more than 200 nM.)
11,"Cc1cc(Br)ccc1NC(=O)N[C@H]1CC[C@@H](Nc2nccc(N(C)C)n2)CC1 [compound 2249, N-(4-bromo-2-methylphenyl)-N′-(cis-4-{[4-(dimethylamino)pyrimidin-2-yl]amino}cyclohexyl)urea]",2 (Class 2: The value of percent of control at 10^−7 M was from 40% to 60% or the value of IC′50 was from 50 nM to 200 nM.)
12,CN(C)c1cc(N[C@H]2CC[C@@H](NC(=O)c3cnc4ccccc4c3)CC2)nc2ccccc12 [compound 776],3 (Class 3 The value of percent of control at 10^−7 M was more than 60% or the value of IC50 was more than 200 nM.)
13,COc1cc(C(=O)N[C@H]2CC[C@@H](Nc3cc(N(C)C)c4ccccc4n3)CC2)cc(OC)c1O [compound 784],3 (Class 3 The value of percent of control at 10^−7 M was more than 60% or the value of IC50 was more than 200 nM.)
14,CN(C)c1ccnc(N[C@H]2CC[C@@H](NC(=O)C3CC(=O)c4ccccc43)CC2)n1 (relative stereo) [compound 823],3 (Class 3 The value of percent of control at 10^−7 M was more than 60% or the value of IC50 was more than 200 nM.)
15,CN(C)c1nc(N[C@H]2CC[C@@H](CNCc3ccc(N(C)CCC#N)cc3)CC2)nc2c1CCCC2 [compound 1444],3 (Class 3 The value of percent of control at 10^−7 M was more than 60% or the value of IC50 was more than 200 nM.)
16,"Cc1cc(C)c(NC(=S)N[C@H]2CC[C@@H](Nc3cc(N(C)C)c4ccccc4n3)CC2)c(C)c1 [compound 2275, N-(cis-4-{[4-(dimethylamino)quinolin-2-yl]amino}cyclohexyl)-N′-mesitylthiourea]",1 (Class 1: The value of percent of control at 10^−7 M was less than 40% or the value of IC50 was less than 50 nM.)
17,CN(C)c1cc(N[C@H]2CC[C@@H](NC(=O)C(CC(=O)c3ccc(Br)cc3)c3c[nH]c4ccccc34)CC2)nc2ccccc12 (relative stereo) [compound 717],3 (Class 3 The value of percent of control at 10^−7 M was more than 60% or the value of IC50 was more than 200 nM.)
18,COc1cc(OC)c(CNC[C@H]2CC[C@@H](Nc3cc(N(C)C)c4ccccc4n3)CC2)c(OC)c1 [compound 1161],2 (Class 2: The value of percent of control at 10^−7 M was from 40% to 60% or the value of IC′50 was from 50 nM to 200 nM.)
19,Cc1ccccc1NC(=O)N[C@H]1CC[C@@H](Nc2cc(N(C)C)c3ccccc3n2)CC1 [compound 2098],3 (Class 3 The value of percent of control at 10^−7 M was more than 60% or the value of IC50 was more than 200 nM.)
20,CN(C)c1ccnc(N[C@H]2CC[C@@H](CNCc3ccc(OCc4ccc(Br)cc4)cc3)CC2)n1 [compound 1324],2 (Class 2: The value of percent of control at 10^−7 M was from 40% to 60% or the value of IC′50 was from 50 nM to 200 nM.)

# Same assay, conditions: class by percent of control at 10^−7 M or IC50
row,Structure (SMILES),class
1,"Cc1cc(C(=O)N[C@H]2CC[C@@H](Nc3nc(C)c(C)c(N(C)C)n3)CC2)ccc1Br [compound 2852, 4-bromo-N-(cis-4-{[4-(dimethylamino)-5,6-dimethylpyrimidin-2-yl]amino}cyclohexyl)-3-methylbenzamide]",1 (Class 1: The value of percent of control at 10^−7 M was less than 40% or the value of IC50 was less than 50 nM.)
2,"COc1ccc(C(=O)N[C@H]2CC[C@@H](Nc3nc(C)cc(N(C)C)n3)CC2)cc1C(F)(F)F [compound 2981, N-(cis-4-{[4-(dimethylamino)-6-methylpyrimidin-2-yl]amino}cyclohexyl)-4-methoxy-3-(trifluoromethyl)benzamide]",2 (Class 2: The value of percent of control at 10^−7 M was from 40% to 60% or the value of IC′50 was from 50 nM to 200 nM.)
